Among the data in patent US6326516A, “Acetylenic β-sulfonamido and phosphinic acid amide hydroxamic acid TACE inhibitors” (American Cyanamid Company, priority 2000, dated 2001) are inhibition and IC50 values, retold here.

Like-named read-outs stand apart in the source and are kept apart here.

One experiment deals with THP-1 cells. Kind of experiment: Human Monocytic THP-1 Cell Differentiation Assay for Soluble Proteins (THP-1 Soluble Protein Assay). The class given is cell-based. The method, then:
THP-1 cells (from ATCC) are a human monocytic cell line which were obtained from the peripheral blood of a person with acute monocytic leukemia. They can be grown in culture and differentiated into macrophage like cells by stimulation with mitogens.
For the assay, THP-1 cells are seeded from an ATCC stock which was previously grown and frozen back at 5×10^6/ml/vial. One vial is seeded into a T25-flask with 16 mls of RPMI-1640 with glutamax (Gibco) media containing 10% fetal bovine serum, 100 units/ml penicillin, 100 μg/ml streptomycin, and 5×10^-5 M 2-mercapto-ethanol (THP-1 media). Each vial of cells are cultured for about two weeks prior to being used for an assay and then are used for only 4 to 6 weeks to screen compounds. Cells are subcultured on Mondays and Thursdays to a concentration of 1×10^5/ml.
To perform an assay, the THP-1 cells are co-incubated in a 24 well plate with […] of a 24 mg/ml stock of Lipopolysacharide (LPS) (Calbiochem Lot# B13189) at 37° C. in 5% CO2 at a concentration of 1.091×10^6 cells/ml (1.1 ml/well) for a total of 24 hours. At the same time, […] of drug, vehicle or THP-1 media is plated in appropriate wells to give a final volume of 1.2 ml/well. Standard and test compounds are dissolved in DMSO at a concentration of 36 mM and diluted from here to the appropriate concentrations in THP-1 media and added to the wells at the beginning of the incubation period to give final concentrations of […], 300 nM, and 100 nM. Cell exposure to DMSO was limited to 0.1% final concentration. Positive control wells were included in the experiment which had mitogen added but no drug. Vehicle control wells were included as well, which were identical to the positive control wells, except that DMSO was added to give a final concentration of 0.083%. Negative control wells were included in the experiment which had vehicle but no mitogen or drug added to the cells. Compounds can be evaluated for their effect on basal (non-stimulated) shedding of the receptors by replacing the LPS with […] of THP-1 media. Plates are placed into an incubator set at 5% CO2 and at 37° C. After 4 hours of incubation, […] of tissue culture supernatant (TCS) is removed for use in an TNF-α ELISA. Following 24 hours of incubation, […] of TCS is removed and used for analysis in TNF-R p75/80, TNF-R p55/60 and IL-8 ELISAs.
In addition, at the 24 hours timepoint, and the cells for each treatment group are collected by resuspension in 500 μl/well of THP-1 media and transferred into a FACS tube. Two ml/tube of a 0.5 mg/ml stock of propidium iodide (PI) (Boerhinger Mannheim cat. # 1348639) is added. The samples are run on a Becton Dickinson FaxCaliber FLOW cytometry machine and the amount of dye taken up by each cell is measured in the high red wavelength (FL3). Only cells with compromised membranes (dead or dying) can take up PI. The percent of live cells is calculated by the number of cells not stained with PI, divided by the total number of cells in the sample. The viability values calculated for the drug treated groups were compared to the viability value calculated for the vehicle treated mitogen stimulated group ("vehicle positive control") to determine the "percent change from control". This "percent change from control" value is an indicator of drug toxicity.
The quantity of soluble TNF-α, TNF-R p75/80 and TNF-R p55/60 and IL-8 in the TCS of the THP-1 cell cultures are obtained with commercially available ELISAs from R&D Systems, by extrapolation from a standard curve generated with kit standards. The number of cells that either take up or exclude PI are measured by the FLOW cytometry machine and visualized by histograms using commercially available Cytologic software for each treatment group including all controls. […]

In the next experiment the target is MMP-13 (Homo sapiens, UniProt P45452). The experiment can be described thus: MMP-13 inhibition (thiopeptide or fluorescent peptide substrate). Type of experiment: biochemical. The method, then: (§1) The enzyme activity is measured by the rate of the color increase. The thiopeptide substrate is made up fresh as a 20 mM stock in 100% DMSO and the DTNB is dissolved in 100% DMSO as a 100 mM stock and stored in the dark at room temperature. Both the substrate and DTNB are diluted together to 1 mM with substrate buffer (50 mM HEPES pH 7.5, 5 mM CaCl2) before use. The stock of enzyme is diluted with buffer (50 mM HEPES, pH 7.5, 5 mM CaCl2, 0.02% Brij) to the desired final concentration. The buffer, enzyme, vehicle or inhibitor, and DTNB/substrate are added in this order to a 96 well plate (total reaction volume of 200 μl) and the increase in color is monitored spectrophotometrically for 5 minutes at 405 nm on a plate reader and the increase in color over time is plotted as a linear line.
(§2) Alternatively, a fluorescent peptide substrate is used. In this test procedure, the peptide substrate contains a fluorescent group and a quenching group. Upon cleavage of the substrate by an MMP, the fluorescence that is generated is quantitated on the fluorescence plate reader. The assay is run in HCBC assay buffer (50 mM HEPES, pH 7.0, 5 mM Ca^+2, 0.02% Brij, 0.5% Cysteine), with human recombinant MMP-1, MMP-9, or MMP-13. The substrate is dissolved in methanol and stored frozen in 1 mM aliquots. For the assay, substrate and enzymes are diluted in HCBC buffer to the desired concentrations. Compounds are added to the 96 well plate containing enzyme and the reaction is started by the addition of substrate. The reaction is read (excitation 340 nm, emission 444 nm) for 10 min. and the increase in fluorescence over time is plotted as a linear line.
(§3) For either the thiopeptide or fluorescent peptide test procedures, the slope of the line is calculated and represents the reaction rate. The linearity of the reaction rate is confirmed (r^2 >0.85). The mean (x±sem) of the control rate is calculated and compared for statistical significance (p<0.05) with drug-treated rates using Dunnett's multiple comparison test. Dose-response relationships can be generated using multiple doses of drug and IC50 values with 95% CI are estimated using linear regression.

Another experiment deals with T1, MMP-1 (Homo sapiens, UniProt P03956).
T1 sequence (P03956 100-469): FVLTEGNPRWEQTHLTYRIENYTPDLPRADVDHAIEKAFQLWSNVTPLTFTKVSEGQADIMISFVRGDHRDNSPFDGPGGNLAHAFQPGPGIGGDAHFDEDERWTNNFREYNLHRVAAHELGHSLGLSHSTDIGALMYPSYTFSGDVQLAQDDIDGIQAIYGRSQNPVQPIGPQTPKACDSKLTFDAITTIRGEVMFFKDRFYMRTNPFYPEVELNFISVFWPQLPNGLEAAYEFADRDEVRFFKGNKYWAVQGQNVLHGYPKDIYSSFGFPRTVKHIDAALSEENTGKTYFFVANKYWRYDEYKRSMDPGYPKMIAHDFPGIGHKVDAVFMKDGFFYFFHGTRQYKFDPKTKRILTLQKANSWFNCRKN
Kind of experiment: MMP-1 inhibition (thiopeptide or fluorescent peptide substrate). Type of experiment: biochemical. The method, then:
as §1, §2, §3

In the next experiment the target is MMP-9 (Homo sapiens, UniProt P14780). The experiment can be described thus: MMP-9 inhibition (thiopeptide or fluorescent peptide substrate). The class given is biochemical. The method, then:
as §1, §2, §3

Experiment [1] has as its target TNF-α converting enzyme (TACE) (Homo sapiens, UniProt P78536). Kind of experiment: TACE inhibition (fluorescent peptidyl substrate). The class given is biochemical. Here is the method:
Using 96-well black microtiter plates, each well receives a solution composed of 10 μL TACE (fmal concentration 1 μg/mL), 70 μL Tris buffer, pH 7.4 containing 10% glycerol (final concentration 10 mM), and 10 μL of test compound solution in DMSO (final concentration 1 μM, DMSO concentration <1%) and incubated for 10 minutes at room temperature. The reaction is initiated by addition of a fluorescent peptidyl substrate (final concentration 100 μM) to each well and then shaking on a shaker for 5 sec.
The reaction is read (excitation 340 nm, emission 420 nm) for 10 min. and the increase in fluorescence over time is plotted as a linear line. The slope of the line is calculated and represents the reaction rate.
The linearity of the reaction rate is confirmed (r^2 >0.85). The mean (x±sem) of the control rate is calculated and compared for statistical significance (p<0.05) with drug-treated rates using Dunnett's multiple comparison test. Dose-response relationships can be generate using multiple doses of drug and IC50 values with 95% CI are estimated using linear regression.

Sequence of MMP-9 (P14780 94-707): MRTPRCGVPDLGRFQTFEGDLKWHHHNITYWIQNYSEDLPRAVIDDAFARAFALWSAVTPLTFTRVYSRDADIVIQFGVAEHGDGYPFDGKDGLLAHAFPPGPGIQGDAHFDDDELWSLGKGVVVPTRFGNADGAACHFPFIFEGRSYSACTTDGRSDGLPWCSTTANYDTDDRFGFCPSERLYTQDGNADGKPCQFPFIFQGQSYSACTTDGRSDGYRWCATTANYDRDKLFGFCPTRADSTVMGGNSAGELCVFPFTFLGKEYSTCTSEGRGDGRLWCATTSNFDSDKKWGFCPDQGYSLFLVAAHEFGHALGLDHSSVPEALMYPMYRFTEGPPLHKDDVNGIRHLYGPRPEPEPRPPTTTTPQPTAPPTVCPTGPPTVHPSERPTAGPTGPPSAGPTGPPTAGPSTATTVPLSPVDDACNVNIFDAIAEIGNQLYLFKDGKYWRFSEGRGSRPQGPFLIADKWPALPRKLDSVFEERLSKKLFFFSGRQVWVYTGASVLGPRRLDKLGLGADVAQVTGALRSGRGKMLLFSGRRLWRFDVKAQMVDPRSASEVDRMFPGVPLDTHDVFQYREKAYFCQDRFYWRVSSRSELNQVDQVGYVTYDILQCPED
Sequence of TNF-α converting enzyme (TACE) (P78536 215-824): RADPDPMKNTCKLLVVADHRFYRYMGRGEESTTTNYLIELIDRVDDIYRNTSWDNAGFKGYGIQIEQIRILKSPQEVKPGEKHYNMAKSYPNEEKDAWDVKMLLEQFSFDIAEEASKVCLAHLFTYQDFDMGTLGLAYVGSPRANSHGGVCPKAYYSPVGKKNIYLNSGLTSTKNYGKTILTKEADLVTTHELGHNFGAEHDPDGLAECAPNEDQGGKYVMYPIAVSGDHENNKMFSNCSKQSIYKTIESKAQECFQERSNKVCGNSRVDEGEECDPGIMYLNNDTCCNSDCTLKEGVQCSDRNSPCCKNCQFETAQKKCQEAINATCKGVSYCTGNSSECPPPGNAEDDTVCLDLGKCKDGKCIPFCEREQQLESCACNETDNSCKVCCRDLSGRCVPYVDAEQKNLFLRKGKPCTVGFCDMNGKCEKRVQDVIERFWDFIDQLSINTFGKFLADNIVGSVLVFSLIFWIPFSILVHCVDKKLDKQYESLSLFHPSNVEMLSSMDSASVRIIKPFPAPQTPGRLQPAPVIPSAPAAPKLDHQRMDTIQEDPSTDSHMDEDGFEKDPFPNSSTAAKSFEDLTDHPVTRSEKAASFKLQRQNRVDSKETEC

As for `CC#CCOc1ccc(S(=O)(=O)N(C)[C@H]2CCCC[C@H]2C(=O)NO)cc1` (relative stereo) [Example 36, (Cis)-2-[{[4-(2-butynyloxy)phenyl]sulfonyl}(methyl)amino]-N-hydroxycyclohexanecarboxamide], testing at 3 µM in the experiment with THP-1 cells gave an inhibition of 23%. The concentration for half-maximal inhibition (IC50) (in general, the concentration needed to halve the response being measured) at MMP-13 was 1.82 µM; on MMP-1 it was 4.23 µM; against MMP-9, 1.32 µM; in experiment [1] it was 0.053 µM.

Consider `CC#CCOc1ccc(S(=O)(=O)N[C@H]2CCC[C@H]2C(=O)NO)cc1` [Example 26], for which the inhibition (in general, the share of the control response that was lost under treatment) at 3 µM in the experiment on THP-1 cells amounted to 23%. Besides, the IC50 is 0.672 µM on MMP-13, above 1 µM at MMP-1 (bounds given in uM), 5.06 µM against MMP-9 and 0.015 µM in experiment [1].

In the experiment with THP-1 cells, `CC#CCOc1ccc(S(=O)(=O)N[C@H]2CCCC[C@H]2C(=O)NO)cc1` (relative stereo) [Example 32, (Cis)-2-[{[4-(2-butynyloxy)phenyl]sulfonyl}amino)-N-hydroxycyclohexanecarboxamide] gave an inhibition at 3 µM of 29%. Also, the IC50 is 1.74 µM against MMP-13, above 10 µM against MMP-1 (bounds given in uM), around 10 µM against MMP-9 (bounds given in uM) and 0.036 µM in experiment [1].

In the experiment with THP-1 cells, `CC#CCOc1ccc(S(=O)(=O)N(C)[C@H]2CCC[C@H]2C(=O)NO)cc1` [Example 30, (1R,2S)-2-[{[4-(2-Butynyloxy)phenyl]sulfonyl}(methyl)amino]N-hydroxycyclopentanecarboxamide] yielded an inhibition at 3 µM of 65%. The IC50 on MMP-13 worked out at 0.308 µM; on MMP-1 it was 2.77 µM; at MMP-9, 0.383 µM; in experiment [1], 0.014 µM.

Consider `CC#CCOc1ccc(S(=O)(=O)NC2C3CCC(C3)C2C(=O)NO)cc1` [Example 38, (1R,2R,3S,4R)-(Cis)-3-({[4-(2-butynyloxy)phenyl]sulfonyl}amino)-N-hydroxybicyclo[2.2.1]heptane-2-carboxamide], for which the inhibition at 3 µM in the experiment on THP-1 cells is 9%. The IC50 is around 10 µM at MMP-13 (bounds given in uM), above 10 µM against MMP-1 (bounds given in uM), above 10 µM against MMP-9 (bounds given in uM) and 0.03 µM in experiment [1].

The compound `CC#CCOc1ccc(S(=O)(=O)N(C)[C@@H]2CCCC[C@H]2C(=O)NO)cc1` [Example 17, (1R,2R)-2-[{[4-(2-Butynyloxy)phenyl]sulfonyl}(methyl)amino]-N-hydroxycyclohexanecarboxamide] showed an inhibition at 3 µM with THP-1 cells of 14%. The IC50 against MMP-13 (bounds given in uM) is above 10 µM; on MMP-1 (bounds given in uM) it was above 10 µM; against MMP-9 (bounds given in uM), above 10 µM; in experiment [1] it was 0.028 µM.

For `CC#CCOc1ccc(S(=O)(=O)N(C)C2C3CCC(C3)C2C(=O)NO)cc1` [Example 42, (1R,2R,3S,4R)-(Cis)-3-({[4-(2-butynyloxy)phenyl]sulfonyl}(methyl)amino)-N-hydroxybicyclo[2.2.1]heptane-2-carboxamide], the inhibition at 3 µM with THP-1 cells amounted to 77%. The IC50 against MMP-13 is 1.14 µM; against MMP-1 (bounds given in uM) it was around 10 µM; in experiment [1], 0.062 µM.

For the compound `CC#CCOc1ccc(S(=O)(=O)N[C@@H]2CCCC[C@H]2C(=O)NO)cc1` [Example 18, (1R,2R)-2-({[4-(2-Butynyloxy)phenyl]sulfonyl}amino)-N-hydroxycyclohexanecarboxamide], in the experiment with THP-1 cells, the inhibition at 3 µM was 1%. Further, the IC50 against MMP-13 (bounds given in uM) is above 10 µM; against MMP-1 (bounds given in uM) it was above 10 µM; at MMP-9 (bounds given in uM), above 10 µM; in experiment [1], 0.061 µM.

Consider `CC#CCOc1ccc(S(=O)(=O)NCCC(=O)NO)cc1` [Example 21, 3-({[4-(2-Butynyloxy)phenyl]sulfonyl}amino)-N-hydroxypropanamide], for which the inhibition at 3 µM in the experiment on THP-1 cells stood at 0%. Moreover, the IC50 in experiment [1] came to 0.145 µM.

For the compound `CC#CCOc1ccc(S(=O)(=O)N(C)CCC(=O)NO)cc1` [Example 24, 3-({[4-(2-Butynyloxy)phenyl]sulfonyl}(methyl)amino)-N-hydroxypropanamide], in the experiment on THP-1 cells, 3 µM produced 9% inhibition. This compound also showed an IC50 in experiment [1] of 0.073 µM.
